Laboratory results: patent US20260294845A1, “Uses of Adrenalone to Manage Cardiotoxicity or Cardiovascular Disorders” (Emory University, priority 2023, published 2026)
Entries after “also recorded” stand apart in the source; their conditions may differ.

Tests used:
hiPSC-CMs [1] = experiment: Cell viability of hiPSC-CMs treated with carfilzomib with or without 4H10 (CellTiter-Blue); type: cell-based, human; conditions: carfilzomib 5 μM alone, 24 h, IMR-90 hiPSC-CMs, compared with DMSO
Procedure: Cell viability was analyzed after IMR-90 hiPSC-CMs were treated with carfilzomib (CFZ) with or without 4H10 for 24 hours. (n=5 cultures).
(§1) A human induced pluripotent cell line (hiPSC line IMR90™, WiCell Research Institute) was fed daily on Matrigel™-coated plates with a defined medium for hiPSC culture, mTeSR1 medium. For CM differentiation, hiPSCs were induced using a growth factor-driven differentiation protocol as reported in Jha et al. Efficient differentiation of cardiomyocytes from human pluripotent stem cells with growth factors. Methods Mol Biol, 2015, 1299, 115-131. On the day of induction (day 0), medium was replaced with RPMI 1640 medium supplemented with 2% B27 minus insulin (a cell culture supplement) containing 100 ng/ml activin A. After induction for 24 h, the medium was replaced with fresh RPMI supplemented with 2% B27 minus insulin containing 10 ng/ml BMP4. From day 4 of differentiation, the medium was replaced with RPMI supplemented with 2% B27. On day 5, the cells were dissociated and reseeded into AggreWell400™ plates to acquire cardiac spheres. After 24 h, the cardiac spheres formed were collected and transferred to low-adhesion dishes for suspension culture. The medium was changed every other day. Cardiac spheres typically started beating spontaneously by day 7 to 9.
Cardiomyocytes derived from human pluripotent stem cells (hiPSC-CMs) were provide a new platform for the studies of cancer drug-induced side effects and therapies. Using these cells, lead molecules were identified indicating protective properties on cardiomyocytes from the toxic effect of chemotherapy agents and ethanol (EtOH). […] Oxidative stress is a common molecular mechanism for cardiotoxicity induced by chemotherapy including proteosome inhibitors.
Consistently, treatment of hiPSC-CMs induced cell death and cytotoxicity. To examine if 4H10 could protect cardiomyocytes from carfilzomib-induced cytotoxicity, hiPSC-CMs were treated with carfilzomib at 5 μM alone or together with 4H10 at various concentrations for 24 h and then examined cell viability using the CellTiter-Blue Cell Viability Assay. Cells treated with DMSO (vehicle) were used as a control.

hiPSC-CMs [2] = experiment: MitoTracker Red staining (mitochondrial content and activity) of carfilzomib-treated hiPSC-CMs, high-content imaging; type: cell-based, human; conditions: carfilzomib alone, 24 h, IMR-90 hiPSC-CMs
Procedure: MitoTracker™ Red staining was performed in IMR-90 hiPSC-CMs treated with CFZ with or without 4H10 for 24 hours.
as §1
Mitochondria play a crucial role in energy production, cellular metabolism, and the regulation of cell death. Experiments indicate carfilzomib induces mitochondrial dysfunction in hiPSC-CMs. To assess the potential mitigating effects of 4H10 on carfilzomib-induced mitochondrial dysfunction, hiPSC-CMs were treated with carfilzomib alone or co-treated with 4H10 at various concentrations. Mitochondria were then visualized using MitoTracker™ Red dyes, which can accumulate in active mitochondria and allow for the measurement of mitochondrial content and activity in live cells.

hiPSC-CMs [3] = experiment: Intracellular oxidative stress (ROS) of carfilzomib-treated hiPSC-CMs, DCFDA/H2DCFDA assay; type: cell-based, human; conditions: carfilzomib 5 μM alone, 24 h, SCVI hiPSC-CMs
Procedure: The quantification of oxidative stress was performed using DCFDA staining of SCVI hiPSC-CMs treated with Cfz with or without 4H10 for 24 hours.
The induction of oxidative stress is a crucial mechanism through which proteasome inhibitors induce apoptosis. To investigate if 4H10 could alleviate carfilzomib-induced increase of oxidative stress in cardiomyocytes, hiPSC-CMs were exposed to carfilzomib at 5 μM alone or together with 4H10 at various concentrations for 24 h. The production of cellular reactive oxygen species (ROS) was then measured using DCFDA/H2DCFDA assay kit.

proteasome [4] = experiment: Proteasome activity in hiPSC-CMs after carfilzomib with or without 4H10; type: cell-based, human; conditions: carfilzomib, 24 h, IMR-90 hiPSC-CMs, compared with DMSO
Procedure: (§2) (top) Proteasome activity of IMR-90 hiPSC-CMs was measured after the cells were treated with CFZ with or without 4H10 for 24 hours. (bottom, right, left) Proteasome activity and cell viability of RPMI8226 cells (cancer cells) were measured after the cells were treated with CFZ with or without 4H10 for 24 hours.
The proteasome, responsible for the regulated degradation of proteins, is a key cellular component targeted by carfilzomib as part of its mechanism of action in cancer therapy. Therefore, in addition to validation of cardioprotective effects of 4H10 on cell viability and mitochondrial function, it is crucial to examine if 4H10 compromises the proteasome inhibition efficacy of carfilzomib.

proteasome [5] = experiment: Proteasome activity in RPMI8226 cells after carfilzomib with or without 4H10; type: cell-based; conditions: carfilzomib, 24 h, compared to DMSO
Procedure: as §2
(§3) Experiments were designed to determine the effects of carfilzomib and 4H10 on proteasome activity and cell viability of RPMI8226 cell line, which has been investigated for the efficacy tests of carfilzomib in […].

RPMI8226 cells = experiment: Cell viability of RPMI8226 cells after carfilzomib with or without 4H10; type: cell-based; conditions: carfilzomib, 24 h, compared to DMSO
Procedure: as §2, §3

hiPSC-CMs [6] = experiment: Effects of chemotherapeutic agents on function of hiPSC-CMs; type: cell-based, human; conditions: carfilzomib treatment
hiPSC-CMs [7] = conditions: carfilzomib; Forghani et al., 2021; cited from earlier work
[8] = carfilzomib, serum; read-out: maximum (or peak) serum concentration, Cmax; cited from earlier work
patients = conditions: among the proteosome inhibitors; cited from earlier work

## CC(C)C[C@H](NC(=O)[C@H](CCc1ccccc1)NC(=O)CN1CCOCC1)C(=O)N[C@@H](Cc1ccccc1)C(=O)N[C@@H](CC(C)C)C(=O)[C@@]1(C)CO1 [carfilzomib]
hiPSC-CMs [1]
  cell viability (cytotoxicity) after carfilzomib: caused cytotoxicity; also recorded: significant decrease in cell viability
hiPSC-CMs [2]
  mitochondrial mass and activity (MitoTracker Red fluorescence intensity): reduction in mitochondrial mass and activity
hiPSC-CMs [3]
  DCFDA fluorescence intensity (oxidative stress): significant increase in DCFDA fluorescence intensity
Proteasome [4]
  cellular proteasome activity: significant decrease in cellular proteasome activity
Proteasome [5]
  proteasome activity in RPMI8226 cells: suppressed
RPMI8226 cells
  viability of RPMI8226 cells: significantly decreased the viability
hiPSC-CMs [6]
  Ca^2+ handling of hiPSC-CMs: negatively affects
  contractility of hiPSC-CMs: negatively affects
  mitochondrial function of hiPSC-CMs: negatively affects
  traction forces of hiPSC-CMs: negatively affects
hiPSC-CMs [7]
  molecular and functional alterations of hiPSC-CMs: causes molecular and functional alterations
[8]
  Cmax: 5.88 µM
patients
  cardiotoxicity in clinic: highest cardiotoxicity in clinic
